Experiments:
[1] = test system: MCF-7 breast cancer cells; experiment: CellTiter-Glo Luminescent Cell Viability Assay; type: cell-based, human
Experimental: EV-fenretinide was packaged in a manner similar to the protocol described in Example 2. EV-fenretinide was dosed onto MCF-7 breast cancer cells using the exemplary protocol below. Cell viability was measured using the Promega CellTiter-Glo® Luminescent Cell Viability Assay—a method of determining the number of viable cells in culture based on quantitation of the ATP present, an indicator of metabolically active cells.
Protocol steps: • 1. MCF-7 cells were cultured in Dulbecco's Modified Eagle's Medium (DMEM) supplemented with 10% exosome-free fetal bovine serum (FBS) supplemented with penicillin-streptomycin-glutamine (PSG; 100 units/mL penicillin, 100 μg/mL streptomycin and 2 mM L-glutamine) for 1-2 passages. • 2. MCF-7 cells were harvested, washed, counted and resuspended in culture medium (DMEM supplemented with 10% exosome-free FBS and PSG) at 5E5 cells/mL. • 3. The MCF-7 cells were seeded at 5E4 cells in a volume of 100 μL/well of culture medium in a white polystyrene 96-well tissue culture plate and incubated for 18-20 hrs at 37° C./5% CO2 humidified incubator. • 4. After 18-20 hrs of incubation, medium was removed from the wells and replaced with culture medium containing test agents. […] The plate was shaken for two minutes and then left to equilibrate for 10 minutes prior to reading the luminescence on a microplate reader (iD3-Molecular Devices).

CD-1 IGS mice = experiment: Toxicology: serum and blood chemistry, complete blood count; type: in vivo, mouse
Experimental: Both arms were dosed via intravenous tail-vein injected at 0.23 mg/kg with a 4 mL/kg dose volume. The EV-fenretinide formulation was stored at −80° C. until injection into mice. Blood was collected at 2, 5, 10, 15, 30, 60, 120, 240, and 960 minutes, three mice were sacrificed at each time point, and tissue was collected at 30, 120 and 960 minutes. Spleen, liver, lung, kidney, brain and heart tissues were collected. Fenretinide amount in blood and tissue was measured via LC MS/MS mass spectrometry. Serum and hematology toxicology measurements were collected from the blood samples. Blood urea nitrogen (BUN), creatinine, and alanine aminotransferase were measured from serum.
Fenretinide-EVs and fenretinide-alone formulations were produced and dosed in the animal model as in Example 6. On the terminal blood draw of each animal, 20 μL of whole blood samples were used to measure complete blood count (CBC) on the Veterinary Hematology Analyzer (Hematrue, Heska).

[2] = CellTiter-Huor Cell Viability Assay; type: cell-based; settings: human, ARPE-19 retinal pigment epithelium cells, read-out: cell viability or growth of untreated control
Experimental: EV-fenretinide was packaged and purified in a manner similar to the protocol described in Example 1. The extracellular vesicles used for packaging fenretinide was isolated from HEK293-F cells. A human retinal pigment epithelium (RPE) cell line, ARPE-19 (ATCC® CRL-2302™), isolated from normal eyes of an adult […], is treated with fenretinide alone or fenretinide-EV to examine the effect on viability of retinal pigment epithelium cells. ARPE-19 cells plated the night before were treated with fenretinide (resuspended in 100% DMSO) or fenretinide-EV (in PBS) at matched concentration of drug substance (active pharmaceutical ingredient (API)) dosed at either low (0.94 μM) or high (15 μM) fenretinide concentration. After 48 hrs at 37° C. in a humidified 5% CO2 incubator, cell viability is measured using CellTiter-Huor™ Cell Viability Assay (Promega) following the manufacturer's instructions to detect viable cells based on cell membrane integrity using a fluorogenic, cell-permeant, peptide substrate (Gly-Phe-AFC) which is cleaved to a fluorescent signal following entry into intact cells. The plate was read on plate reader at 380-400 nm excitation and —505 nm emission for live-cell fluorescence readout.

[3] = Retention and biodistribution of fenretinide in eye after intravitreal injection; type: in vivo, brown Norway rat; settings: 24-hrs after intravitreal 5 μL per eye; 94.8 uM fenretinide-EV or 90.9 uM fenretinide alone
Experimental: Eye biodistribution of fenretinide formulated as 90.9 uM free fenretinide (excipient: 5% Ethanol, 12.5% Solutol-HS 15, 12.5% PEG 300, and 70% PBS) or 94.8 uM fenretinide-EV (in PBS) is administered to each eye of brown Norway rat (6 rats/treatment condition) by intravitreal injection (5 μL per eye). 24-hrs after administration, eyes were enucleated. Individual tissues were collected corresponding to cornea, conjunctiva, lens, vitreous humor, retina, RPE/choroid and sclera and analyzed for fenretinide content. In addition, total fenretinide content in each eye was also determined.

[4] = cited from earlier work
[5] = DrugBank DB05076; cited from earlier work

percentage of fenretinide remaining in eyes [3] [%] | SMILES | viability at 40 µM ([1]; Homo sapiens, MCF7, MCF-7, 40 μM fenretinide, 48 hours) [%] | effect on cell viability over concentration ([1]; MCF-7, 0.625-40 μM, most notable after about 10 μM) | decrease in PLT (platelet concentration) versus Charles River general levels (CD-1 IGS mice; 16 hrs after intravenous 0.2288 mg/kg) [fold] | adverse effects based on serum and blood chemistry results (CD-1 IGS mice; intravenous 0.23 mg/kg) | viability at 48 h, 0.94 μM ([2]; ARPE-19, 0.94 μM fenretinide equivalent) [%] | viability at 48 h, 15 μM ([2]; ARPE-19, 15 μM fenretinide equivalent) [%] | solubility limit in water ([4]; water) | logP [5] | solubility in water ([4]; Selleck Chem catalog)
7 | CC1=C(/C=C/C(C)=C/C=C/C(C)=C/C(=O)Nc2ccc(O)cc2)C(C)(C)CCC1 [Fenretinide, N[4-hydroxyphenyl]retinamide] | ~20 | dose-dependent cell viability inhibition | 5 | did not exert apparent adverse effects | 85.5 | 31 | about 1.71 μg/mL | greater than 6 | –
– | Cc1nc(Nc2ncc(C(=O)Nc3c(C)cccc3Cl)s2)cc(N2CCN(CCO)CC2)n1 [dasatinib] | – | – | – | – | – | – | – | – | insoluble in water

From patent US20220323412A1, “EXTRACELLULAR VESICLE-FENRETINIDE COMPOSITIONS, EXTRACELLULAR VESICLE-C-KIT INHIBITOR COMPOSITIONS, METHODS OF MAKING AND USES THEREOF” (priority 2020, published 2022)
